Experimental data as given in ChEMBL document CHEMBL4422630, “Identification of substituted 5-membered heterocyclic compounds as potential anti-leukemic agents” (Eur J Med Chem, 2019).
Active and inactive are the calls of the source. The rule behind the calls is not given here.

Legend:
KOPN-8 [1] = test: Induction of apoptosis in human KOPN8 cells assessed as late apoptotic cells level at 2 uM after 24 hrs by Annexin V and propidium iodide staining based flow cytometry (reference value: 96.4%); format: functional
SUP-B15 [2] = test: Induction of apoptosis in human SUP-B15 cells assessed as late apoptotic cells level at 2 uM after 24 hrs by Annexin V and propidium iodide staining based flow cytometry (reference value: 83%); format: functional
SUP-B15 [3] = test: Induction of apoptosis in human SUP-B15 cells assessed as late apoptotic cells level at 2 uM after 24 hrs by Annexin V and propidium iodide staining based flow cytometry (reference value: 13.5%); format: functional
KOPN-8 [4] = test: Induction of apoptosis in human KOPN8 cells assessed as late apoptotic cells level at 2 uM after 24 hrs by Annexin V and propidium iodide staining based flow cytometry (reference value: 2%); format: functional
[5] = Half life in mouse microsomes; format: ADME, Microsome
KOPN-8 [6] = test: Induction of apoptosis in human KOPN8 cells assessed as decrease in cell viability at 5 uM after 24 hrs by Annexin V/propidium iodide staining-based flow cytometric analysis; format: functional
MDA-MB-231 [7] = test: Cytotoxicity against human MDA-MB-231 cells at 30 uM after 24 hrs by propidium iodide staining-based fluorescence assay; format: functional, cell-based
KOPN-8 [8] = test: Antiproliferative activity against human KOPN8 assessed as reduction in cell viability after 72 hrs by CellTiter-Glo assay; format: functional, cell-based; settings: KOPN-8, 72 h
KOPN-8 [9] = test: Induction of apoptosis in human KOPN8 cells assessed as late apoptotic cells level after 24 hrs by Annexin V and propidium iodide staining based flow cytometry (reference value: 2%); format: functional
NALM-6 = test: Antiproliferative activity against human NALM6 assessed as reduction in cell viability after 72 hrs by CellTiter-Glo assay; format: functional, cell-based; settings: NALM-6, 72 h
[10] = Half life in human microsomes; format: ADME, Microsome
SUP-B15 [11] = test: Induction of apoptosis in human SUP-B15 cells assessed as decrease in cell viability at […] after 24 hrs by ApoTox-Glo triplex assay; format: functional, cell-based
SUP-B15 [12] = test: Cytotoxicity in human SUP-B15 cells assessed as decrease in cell viability after 24 hrs by bis-AAF-RF110 dye based assay; format: functional
BJ = test: Antiproliferative activity against human BJ assessed as cell viability after 72 hrs by CellTiter-Glo assay; format: functional, cell-based
[13] = Half life in human plasma; format: ADME, cell-free
SUP-B15 [14] = test: Induction of apoptosis in human SUP-B15 cells assessed as late apoptotic cells level after 24 hrs by Annexin V and propidium iodide staining based flow cytometry (reference value: 83%); format: functional
SUP-B15 [15] = test: Antiproliferative activity against human SUP-B15 assessed as reduction in cell viability after 72 hrs by CellTiter-Glo assay; format: functional, cell-based; settings: SUP-B15, 72 h
KOPN-8 [16] = test: Induction of apoptosis in human KOPN8 cells assessed as late apoptotic cells level after 24 hrs by Annexin V and propidium iodide staining based flow cytometry (reference value: 96.4%); format: functional
SUP-B15 [17] = test: Cell cycle arrest in human SUP-B15 cells assessed as accumulation of cells at G1/G0 phase at 5 uM after 24 hrs by propidium iodide staining-based flow cytometric analysis; format: functional
[18] = Apparent permeability of compound form apical to basolateral side in human Caco2 cells; format: ADME, cell-based; settings: Caco-2
[19] = Permeability of compound at pH 7.4 assessed as drug retention by PAMPA; format: ADME
SUP-B15 [20] = test: Induction of apoptosis in human SUP-B15 cells assessed as late apoptotic cells level after 24 hrs by Annexin V and propidium iodide staining based flow cytometry (reference value: 13.5%); format: functional
[21] = Therapeutic index, ratio of EC50 for human BJ cells to EC50 for mouse B-ALL cells expressing wild type BCR-ABL; format: toxicity; settings: human BJ cells versus mouse B-ALL cells expressing wild type BCR-ABL; read-out: Ratio EC50
B-ALL [22] = test: Antiproliferative activity against mouse B-ALL cells expressing wild type BCR-ABL assessed as reduction in cell viability after 72 hrs by CellTiter-Glo assay; format: functional, cell-based
[23] = Half life in simulated gastric fluid; format: ADME
K562 = test: Antiproliferative activity against human K562 assessed as reduction in cell viability after 72 hrs by CellTiter-Glo assay; format: functional, cell-based; settings: K562, 72 h
MV4-11 = test: Antiproliferative activity against human MV411 assessed as reduction in cell viability after 72 hrs by CellTiter-Glo assay; format: functional, cell-based; settings: MV4-11, 72 h
[24] = Intrinsic clearance in human microsomes; format: ADME, Microsome
[25] = Efflux ratio of apparent permeability across basolateral to apical side over apical to basolateral side in human Caco2 cells; format: ADME, cell-based; settings: Caco-2
MDA-MB-231 [26] = test: Cytotoxicity against human MDA-MB-231 cells up to 30 uM after 24 hrs by propidium iodide staining-based fluorescence assay; format: functional, cell-based
SUP-B15 [27] = test: Induction of apoptosis in human SUP-B15 cells assessed as increase in caspase 3/7 activity after 24 hrs by caspase-Glo 3/7 reagent based luminescence assay; format: functional, cell-based
[28] = Intrinsic clearance in mouse microsomes; format: ADME, Microsome
SUM149PT [29] = test: Cytotoxicity against human SUM149 cells at 1 uM after 24 hrs by propidium iodide staining-based fluorescence assay relative to control; format: functional, cell-based
SUP-B15 [30] = test: Induction of apoptosis in human SUP-B15 cells assessed as decrease in cell viability at 5 uM after 24 hrs by Annexin V/propidium iodide staining-based flow cytometric analysis; format: functional
[31] = Permeability of compound at pH 7.4 by PAMPA; format: ADME
B-ALL [32] = test: Induction of apoptosis in mouse B-ALL BCR-ABL double knockout cells assessed as increase in caspase 3/7 activity after 24 hrs by caspase-Glo 3/7 reagent based luminescence assay; format: functional, cell-based
UoC-B1 = test: Antiproliferative activity against human UOCB1 assessed as reduction in cell viability after 72 hrs by CellTiter-Glo assay; format: functional, cell-based; settings: UoC-B1, 72 h
KOPN-8 [33] = test: Cell cycle arrest in human KOPN8 cells assessed as increase in accumulation of cells at S phase at 5 uM after 24 hrs by propidium iodide staining-based flow cytometric analysis; format: functional
B-ALL [34] = test: Antiproliferative activity against mouse B-ALL BCR-ABL double knockout cells assessed as reduction in cell viability after 72 hrs by CellTiter-Glo assay; format: functional, cell-based
KOPN-8 [35] = test: Cell cycle arrest in human KOPN8 cells at 5 uM after 24 hrs by propidium iodide staining-based flow cytometric analysis; format: functional
[36] = Apparent permeability of compound form basolateral to apical side in human Caco2 cells; format: ADME, cell-based; settings: Caco-2
[37] = Half life in mouse plasma; format: ADME, cell-free
[38] = Protein binding in human plasma; format: ADME, cell-free; settings: read-out: PPB (converted)
SUM149PT [39] = test: Cytotoxicity against human SUM149 cells at 100 uM after 24 hrs by propidium iodide staining-based fluorescence assay relative to control; format: functional
KOPN-8 [40] = test: Cell cycle arrest in human KOPN8 cells assessed as accumulation of cells at G2/M phase at 5 uM after 24 hrs by propidium iodide staining-based flow cytometric analysis relative to control; format: functional
SUP-B15 [41] = test: Cell cycle arrest in human SUP-B15 cells assessed as accumulation of cells at G2/M phase at 5 uM after 24 hrs by propidium iodide staining-based flow cytometric analysis; format: functional
[42] = Protein binding in mouse plasma; format: ADME, cell-free; settings: read-out: PPB (converted)
KOPN-8 [43] = test: Cell cycle arrest in human KOPN8 cells assessed as accumulation of cells at G1/G0 phase at 5 uM after 24 hrs by propidium iodide staining-based flow cytometric analysis relative to control; format: functional

Compound: CN[C@@H]1C[C@H]2O[C@@](C)([C@@H]1OC)n1c3ccccc3c3c4c(c5c6ccccc6n2c5c31)C(=O)NC4 [STAUROSPORINE]
- Activity (KOPN-8 [1]): 53.2%
- Activity (SUP-B15 [2]): 10%
- Activity (SUP-B15 [3]): 52.3%
- Activity (KOPN-8 [4]): 45.2%

Compound: CC(C)C(=O)Nc1ccc2oc(-c3ccc(C(C)(C)C)cc3)nc2c1
- half-life [5]: 3.41 h
- Activity (KOPN-8 [6]): Active
- Activity (MDA-MB-231 [7]): Active
- EC50 (KOPN-8 [8]): 1110 nM
- Activity (KOPN-8 [9]): 4.8%
- EC50 (NALM-6): 604 nM
- half-life [10]: 0.86 h
- Activity (SUP-B15 [11]): Active
- Activity (SUP-B15 [12]): Active
- EC50 (BJ): > 43300 nM
- half-life [13]: > 48 h
- Activity (SUP-B15 [14]): 69.2%
- EC50 (SUP-B15 [15]): 1320 nM
- Activity (KOPN-8 [16]): 94.4%
- Activity (SUP-B15 [17]): Active
- Papp A→B [18]: 7.26 ×10⁻⁶ cm/s
- permeability [19]: 53.6%
- Activity (SUP-B15 [20]): 6.3%
- selectivity ratio [21]: > 9
- EC50 (B-ALL [22]): 4650 nM
- half-life [23]: > 48 h
- EC50 (K562): 8360 nM
- EC50 (MV4-11): 603 nM
- CLint scaled [24]: 24.3 mL/min/kg
- efflux ratio [25]: 0.31
- Activity (MDA-MB-231 [26]): inactive
- Activity (SUP-B15 [27]): Active
- CLint scaled [28]: 16.8 mL/min/kg
- Activity (SUM149PT [29]): Active
- Activity (SUP-B15 [30]): Active
- Peff [31]: 1916.4 ×10⁻⁶ cm/s
- Activity (B-ALL [32]): inactive
- EC50 (UoC-B1): > 43300 nM
- Activity (KOPN-8 [33]): Active
- EC50 (B-ALL [34]): > 43300 nM
- Activity (KOPN-8 [35]): inactive
- Papp B→A [36]: 2.26 ×10⁻⁶ cm/s
- half-life [37]: > 48 h

Compound: Cc1ccc(S(=O)(=O)Cc2nc(-c3ccc(C(=O)NCc4cccnc4)cc3)oc2C)cc1
- fraction unbound [38]: 0.042
- half-life [5]: 1.2 h
- Activity (KOPN-8 [6]): Active
- Activity (SUM149PT [39]): 50%
- Activity (MDA-MB-231 [7]): Active
- EC50 (KOPN-8 [8]): 1230 nM
- Activity (KOPN-8 [9]): 2.9%
- EC50 (NALM-6): 26 nM
- half-life [10]: 1.44 h
- Activity (KOPN-8 [40]): 12%
- Activity (SUP-B15 [11]): Active
- Activity (SUP-B15 [12]): Active
- EC50 (BJ): 2490 nM
- half-life [13]: > 48 h
- Activity (SUP-B15 [41]): inactive
- Activity (SUP-B15 [14]): 69.9%
- EC50 (SUP-B15 [15]): 1100 nM
- Activity (KOPN-8 [16]): 95.8%
- Activity (SUP-B15 [17]): inactive
- Papp A→B [18]: 10.6 ×10⁻⁶ cm/s
- permeability [19]: 24.8%
- Activity (SUP-B15 [20]): 7.6%
- selectivity ratio [21]: 34
- EC50 (B-ALL [22]): 72 nM
- half-life [23]: > 48 h
- EC50 (K562): 4600 nM
- EC50 (MV4-11): 3800 nM
- CLint scaled [24]: 14.5 mL/min/kg
- efflux ratio [25]: 3.5
- fraction unbound [42]: 0.023
- Activity (MDA-MB-231 [26]): inactive
- Activity (SUP-B15 [27]): Active
- CLint scaled [28]: 47.5 mL/min/kg
- Activity (SUP-B15 [30]): Active
- Papp ([31]; read-out: Peff): 617 ×10⁻⁶ cm/s
- Activity (B-ALL [32]): inactive
- EC50 (UoC-B1): > 55000 nM
- Activity (KOPN-8 [33]): Active
- EC50 (B-ALL [34]): 61 nM
- Papp B→A [36]: 37.2 ×10⁻⁶ cm/s
- Activity (KOPN-8 [43]): 10%
- half-life [37]: > 48 h
